Patent publication US20230107642A1 (Erasca, Inc., priority 2020, published 2023)

Biological target: T1, Cys12 of the KRAS 4B G12C protein (Homo sapiens, UniProt P01116, G12C)
T1 construct: This protein contained 188 amino acids in total, including an N-terminal 6-Histidine tag; made in house; host or cells: E. coli BL21
Test: In vitro covalent adduct formation (CAF) assay, LC-MS intact mass
Format: binding
Conditions: 10 uM compound, 60 min
Summary of the method: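 GDP-loaded (>95%) His-TEV-tagged KRAS 4B G12C (residues 1–169), 5 μM in TBS pH 7.4, incubated with 10 μM compound (4% DMSO) at 22° C for one hour. Intact-protein LC-MS gave free:adduct ratios, reported as percent protein modified; duplicate runs.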

Structure (SMILES)	% CAF 10 uM @ 60 min [%]
C=CC(=O)N1[C@H](C)CN(c2nc(=O)n3c4c(c(-c5cc(Cl)c(F)cc5F)c(C(F)(F)F)cc24)SC[C@@H]3CN2C[C@@H]3C[C@H]2CO3)C[C@@H]1C [Example 1302, (3S)-3-(((1S,4S)-2-oxa-5-azabicyclo[2.2.1]heptan-5-yl)methyl)-7-((3S,5R)-4-acryloyl-3,5-dimethylpiperazin-1-yl)-10-(5-chloro-2,4-difluorophenyl)-9-(trifluoromethyl)-2,3-dihydro-5H-[1,4]thiazino[2,3,4-ij]quinazolin-5-one]	78.9
C=CC(=O)N1C[C@H](C)N(c2nc(=O)n3c4c(c(-c5cc(Cl)c(F)cc5F)c(C(F)(F)F)cc24)SC[C@@H]3CN2C[C@@H]3C[C@H]2CO3)C[C@H]1C [Example 1304]	87

Same assay, conditions: 10 μM compound, after 1 hour

Structure (SMILES)	CAF (% after 1 hour) [%]
C=CC(=O)N1[C@H](C)CN(c2nc(=O)n3c4c(c(-c5cc(Cl)c(F)cc5F)c(C(F)(F)F)cc24)SC[C@@H](Oc2cc(C)on2)C3)C[C@@H]1C [Example 1231, (3S,11S)-8-((3S,5R)-4-acryloyl-3,5-dimethylpiperazin-1-yl)-11-(5-chloro-2,4-difluorophenyl)-3-((5-methylisoxazol-3-yl)oxy)-10-(trifluoromethyl)-3,4-dihydro-2H,6H-[1,4]thiazepino[2,3,4-ij]quinazolin-6-one]	38
C=CC(=O)N1[C@H](C)CN(c2nc(=O)n3c4c(c(-c5ccc(F)cc5)c(C(F)(F)F)cc24)SC[C@@H](OCC(=O)N(C)C)C3)C[C@@H]1C [Example 1232, 2-(((S)-8-((3S,5R)-4-acryloyl-3,5-dimethylpiperazin-1-yl)-11-(4-fluorophenyl)-6-oxo-10-(trifluoromethyl)-3,4-dihydro-2H,6H-[1,4]thiazepino[2,3,4-ij]quinazolin-3-yl)oxy)-N,N-dimethylacetamide]	93
C=CC(=O)N1[C@H](C)CN(c2nc(=O)n3c4c(c(-c5ccc(F)cc5)c(C(F)(F)F)cc24)SC[C@@H](OCC(N)=O)C3)C[C@@H]1C [Example 1233, 2-(((S)-8-((3S,5R)-4-acryloyl-3,5-dimethylpiperazin-1-yl)-11-(4-fluorophenyl)-6-oxo-10-(trifluoromethyl)-3,4-dihydro-2H,6H-[1,4]thiazepino[2,3,4-ij]quinazolin-3-yl)oxy)acetamide]	95
C=CC(=O)N1[C@H](C)CN(c2nc(=O)n3c4c(c(-c5cc(Cl)c(F)cc5F)c(C(F)(F)F)cc24)SC[C@@H](Oc2ccncc2)C3)C[C@@H]1C [Example 1234, (3S)-8-((3S,5R)-4-acryloyl-3,5-dimethylpiperazin-1-yl)-11-(5-chloro-2,4-difluorophenyl)-3-(pyridin-4-yloxy)-10-(trifluoromethyl)-3,4-dihydro-2H,6H-[1,4]thiazepino[2,3,4-ij]quinazolin-6-one]	94
C=CC(=O)N1[C@H](C)CN(c2nc(=O)n3c4c(c(-c5ccc(F)cc5C(N)=O)c(C(F)(F)F)cc24)SC[C@@H](OC)C3)C[C@@H]1C [Example 1235, 2-((3S)-8-((3S,5R)-4-acryloyl-3,5-dimethylpiperazin-1-yl)-3-methoxy-6-oxo-10-(trifluoromethyl)-3,4-dihydro-2H,6H-[1,4]thiazepino[2,3,4-ij]quinazolin-11-yl)-5-fluorobenzamide]	69
C=CC(=O)N1[C@H](C)CN(c2nc(=O)n3c4c(c(-c5cc(Cl)c(F)cc5F)c(C(F)(F)F)cc24)SC[C@@H](OCCN(CC)CC)C3)C[C@@H]1C [Example 1236, (3S)-8-((3S,5R)-4-acryloyl-3,5-dimethylpiperazin-1-yl)-11-(5-chloro-2,4-difluorophenyl)-3-(2-(diethylamino)ethoxy)-10-(trifluoromethyl)-3,4-dihydro-2H,6H-[1,4]thiazepino[2,3,4-ij]quinazolin-6-one]	94
C=CC(=O)N1[C@H](C)CN(c2nc(=O)n3c4c(c(-c5cc(Cl)c(F)cc5F)c(C(F)(F)F)cc24)SCC2(CC2)C3)C[C@@H]1C [Example 1237, 8′-((3S,5R)-4-acryloyl-3,5-dimethylpiperazin-1-yl)-11′-(5-chloro-2,4-difluorophenyl)-10′-(trifluoromethyl)-2′H,4′H,6′H-spiro[cyclopropane-1,3′-[1,4]thiazepino[2,3,4-ij]quinazolin]-6′-one]	90
C=CC(=O)N1[C@H](C)CN(c2nc(=O)n3c4c(c(-c5cc(Cl)c(F)cc5F)c(C(F)(F)F)cc24)SCC2(CCC2)C3)C[C@@H]1C [Example 1238, 8′-((3S,5R)-4-acryloyl-3,5-dimethylpiperazin-1-yl)-11′-(5-chloro-2,4-difluorophenyl)-10′-(trifluoromethyl)-2′H,4′H,6′H-spiro[cyclobutane-1,3′-[1,4]thiazepino[2,3,4-ij]quinazolin]-6′-one]	95
C=CC(=O)N1[C@H](C)CN(c2nc(=O)n3c4c(c(-c5cc(Br)c(F)cc5F)c(C(F)(F)F)cc24)SC[C@@H](OC)C3)C[C@@H]1C [Example 1239, (3S)-8-((3S,5R)-4-acryloyl-3,5-dimethylpiperazin-1-yl)-11-(5-bromo-2,4-difluorophenyl)-3-methoxy-10-(trifluoromethyl)-3,4-dihydro-2H,6H-[1,4]thiazepino[2,3,4-ij]quinazolin-6-one]	95
C=CC(=O)N1[C@H](C)CN(c2nc(=O)n3c4c(c(-c5cc(Cl)c(F)cc5F)c(C(F)(F)F)cc24)SC[C@@H](NCC(F)(F)F)C3)C[C@@H]1C [Example 1240, (3S)-8-((3S,5R)-4-acryloyl-3,5-dimethylpiperazin-1-yl)-11-(5-chloro-2,4-difluorophenyl)-3-((2,2,2-trifluoroethyl)amino)-10-(trifluoromethyl)-3,4-dihydro-2H,6H-[1,4]thiazepino[2,3,4-ij]quinazolin-6-one]	91
C=CC(=O)N1[C@H](C)CN(c2nc(=O)n3c4c(c(-c5cc(Cl)c(F)cc5F)c(C(F)(F)F)cc24)SCC2(CN(CC(F)(F)F)C2)C3)C[C@@H]1C [Example 1241, 8′-((3S,5R)-4-acryloyl-3,5-dimethylpiperazin-1-yl)-11′-(5-chloro-2,4-difluorophenyl)-1-(2,2,2-trifluoroethyl)-10′-(trifluoromethyl)-2′H,4′H,6′H-spiro[azetidine-3,3′-[1,4]thiazepino[2,3,4-ij]quinazolin]-6′-one]	91
C=CC(=O)N1[C@H](C)CN(c2nc(=O)n3c4c(c(-c5nc(N)c(F)cc5F)c(C(F)(F)F)cc24)SC[C@@H](OC)C3)C[C@@H]1C [Example 1242, (3S)-8-((3S,5R)-4-acryloyl-3,5-dimethylpiperazin-1-yl)-11-(6-amino-3,5-difluoropyridin-2-yl)-3-methoxy-10-(trifluoromethyl)-3,4-dihydro-2H,6H-[1,4]thiazepino[2,3,4-ij]quinazolin-6-one]	70
C=CC(=O)N1[C@H](C)CN(c2nc(=O)n3c4c(c(-c5cc(Cl)c(F)cc5F)c(C(F)(F)F)cc24)SCC2(CC(=O)C2)C3)C[C@@H]1C [Example 1243, 8′-((3S,5R)-4-acryloyl-3,5-dimethylpiperazin-1-yl)-11′-(5-chloro-2,4-difluorophenyl)-10′-(trifluoromethyl)-2′H,4′H,6′H-spiro[cyclobutane-1,3′-[1,4]thiazepino[2,3,4-ij]quinazoline]-3,6′-dione]	92
